# Reference: patent publication US9714247B2, “Multiple kinase pathway inhibitors” (Mannkind Corporation, priority 2012, dated 2017)
# pIC50: −log10 of the molar value.
# Experiments:
# Assay in all cases: IC50 profiler radiometric kinase assay (Millipore)
# Type in all cases: biochemical
# ASK1(h) = ASK1(h) (Homo sapiens (Human), UniProt Q99683); conditions: STE
# Experimental: (§1) In order to determine the relative enzyme selectivity of these amino naphthyridinones, representative amino naphthyridinones were evaluated for their ability to inhibit various kinases. Kinases were selected for a broad representation of the kinome (see FIG. 2: Kinases Evaluated). Compounds were evaluated using the IC50 profiler assay (Millipore), which measures substrate phosphorylation via γ-^33P-ATP transfer by the kinase of interest.
# (§2) The assay directly measures the catalytic incorporation of phosphate onto kinase substrates. The kinase protein is incubated in buffer with substrate and γ-^33P-ATP. The reaction is initiated by the addition of the Mg-ATP mix. At the end of the reaction incubation time, the reaction is stopped by the addition of phosphoric acid solution and 10 μL of the reaction is spotted onto a filtermat, washed, dried and counted in scintillation fluid. […] In particular the amino naphthyridinones inhibited Abl and some but not all tested members of the Tec and Src families of tyrosine kinases, but not tyrosine-like kinases or the non-tyrosine kinases tested (See FIG. 2: Compound 1). […] Other known drugs with activity against BTK and SFKs, such as dasatinib and bosutinib, have activity against a broader array of tyrosine kinases as well as inhibiting non-tyrosine kinases (See FIG. 2: Dasatinib).
# Abl(h) = Abl(h) (Homo sapiens (Human), UniProt P00519); conditions: TK
# Experimental: as §1, §2
# BTK(R28H)(h) = BTK(R28H)(h) (Homo sapiens (Human), UniProt Q06187, R28H); conditions: TK
# Experimental: as §1, §2
# Bmx(h) = Bmx(h) (Homo sapiens (Human), UniProt P51813); conditions: TK
# Experimental: as §1, §2
# CDK7/cyclinH/MAT1(h) = CDK7/cyclinH/MAT1(h) (Homo sapiens (Human), UniProt P50613); conditions: CMGC
# Sequence of CDK7/cyclinH/MAT1(h) (P50613 whole entry): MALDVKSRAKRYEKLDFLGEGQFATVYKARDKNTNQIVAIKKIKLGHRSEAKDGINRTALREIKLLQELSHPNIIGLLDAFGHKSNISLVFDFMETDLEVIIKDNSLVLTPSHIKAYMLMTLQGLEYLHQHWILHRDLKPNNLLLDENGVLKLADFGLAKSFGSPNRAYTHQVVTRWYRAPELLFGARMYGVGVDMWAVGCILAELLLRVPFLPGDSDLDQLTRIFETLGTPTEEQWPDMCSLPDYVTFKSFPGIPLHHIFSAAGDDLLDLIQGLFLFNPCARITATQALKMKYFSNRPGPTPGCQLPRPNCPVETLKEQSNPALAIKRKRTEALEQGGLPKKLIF
# Sequence of CDK7/cyclinH/MAT1(h) (P51946 whole entry partner): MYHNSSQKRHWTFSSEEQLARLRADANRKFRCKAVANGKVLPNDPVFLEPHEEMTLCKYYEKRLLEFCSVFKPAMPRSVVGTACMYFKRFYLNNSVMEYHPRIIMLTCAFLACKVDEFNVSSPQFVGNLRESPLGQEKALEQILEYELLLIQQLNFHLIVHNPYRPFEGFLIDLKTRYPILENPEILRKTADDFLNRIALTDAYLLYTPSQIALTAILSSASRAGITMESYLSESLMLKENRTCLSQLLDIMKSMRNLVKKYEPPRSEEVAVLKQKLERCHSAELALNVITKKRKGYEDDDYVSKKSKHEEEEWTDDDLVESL
# Sequence of CDK7/cyclinH/MAT1(h) (P51948 whole entry partner): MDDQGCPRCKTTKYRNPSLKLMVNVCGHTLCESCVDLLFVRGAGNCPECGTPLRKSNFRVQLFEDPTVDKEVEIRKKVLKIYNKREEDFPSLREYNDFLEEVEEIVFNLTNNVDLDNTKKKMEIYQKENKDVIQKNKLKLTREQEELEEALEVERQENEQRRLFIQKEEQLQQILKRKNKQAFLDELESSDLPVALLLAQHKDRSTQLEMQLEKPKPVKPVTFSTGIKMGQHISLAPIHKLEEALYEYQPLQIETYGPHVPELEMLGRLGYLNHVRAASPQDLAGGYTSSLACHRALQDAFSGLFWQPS
# Experimental: as §1, §2
# CHK1(h) = CHK1(h) (Homo sapiens (Human), UniProt O14757); conditions: CAMK
# Experimental: as §1, §2
# CK1δ(h) = CK1δ(h) (Homo sapiens (Human), UniProt P48730); conditions: CK1
# Sequence of CK1δ(h) (P48730 whole entry): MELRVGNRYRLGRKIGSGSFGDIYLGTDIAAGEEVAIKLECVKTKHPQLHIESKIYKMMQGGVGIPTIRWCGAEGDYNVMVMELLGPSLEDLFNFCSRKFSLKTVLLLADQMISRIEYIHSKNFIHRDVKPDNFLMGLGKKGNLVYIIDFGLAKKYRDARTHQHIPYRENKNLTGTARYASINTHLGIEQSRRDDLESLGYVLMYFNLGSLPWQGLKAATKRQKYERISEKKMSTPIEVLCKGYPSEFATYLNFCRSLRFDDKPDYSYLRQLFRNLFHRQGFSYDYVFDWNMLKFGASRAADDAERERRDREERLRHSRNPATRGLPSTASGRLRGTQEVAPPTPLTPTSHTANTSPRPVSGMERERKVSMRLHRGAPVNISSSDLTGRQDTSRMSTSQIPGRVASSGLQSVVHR
# Experimental: as §1, §2
# CSK(h) = CSK(h) (Homo sapiens (Human), UniProt P41240); conditions: TK
# Experimental: as §1, §2
# EGFR(h) = EGFR(h) (Homo sapiens (Human), UniProt P00533); conditions: TK
# Experimental: as §1, §2
# FGFR1(h) = FGFR1(h) (Homo sapiens (Human), UniProt P11362); conditions: TK
# Experimental: as §1, §2
# GSK3α(h) = GSK3α(h) (Homo sapiens (Human), UniProt P49840); conditions: CMGC
# Experimental: as §1, §2
# GSK3β(h) = GSK3β(h) (Homo sapiens (Human), UniProt P49841); conditions: CMGC
# Experimental: as §1, §2
# Hck(h) activated = Hck(h) activated (Homo sapiens (Human), UniProt P08631); conditions: TK; activated = phosphorylated
# Experimental: as §1, §2
# IGF-1R(h) = IGF-1R(h) (Homo sapiens (Human), UniProt P08069); conditions: TK
# Experimental: as §1, §2
# IKKβ(h) = IKKβ(h) (Homo sapiens (Human), UniProt O14920); conditions: MISC
# Sequence of IKKβ(h) (O14920 whole entry): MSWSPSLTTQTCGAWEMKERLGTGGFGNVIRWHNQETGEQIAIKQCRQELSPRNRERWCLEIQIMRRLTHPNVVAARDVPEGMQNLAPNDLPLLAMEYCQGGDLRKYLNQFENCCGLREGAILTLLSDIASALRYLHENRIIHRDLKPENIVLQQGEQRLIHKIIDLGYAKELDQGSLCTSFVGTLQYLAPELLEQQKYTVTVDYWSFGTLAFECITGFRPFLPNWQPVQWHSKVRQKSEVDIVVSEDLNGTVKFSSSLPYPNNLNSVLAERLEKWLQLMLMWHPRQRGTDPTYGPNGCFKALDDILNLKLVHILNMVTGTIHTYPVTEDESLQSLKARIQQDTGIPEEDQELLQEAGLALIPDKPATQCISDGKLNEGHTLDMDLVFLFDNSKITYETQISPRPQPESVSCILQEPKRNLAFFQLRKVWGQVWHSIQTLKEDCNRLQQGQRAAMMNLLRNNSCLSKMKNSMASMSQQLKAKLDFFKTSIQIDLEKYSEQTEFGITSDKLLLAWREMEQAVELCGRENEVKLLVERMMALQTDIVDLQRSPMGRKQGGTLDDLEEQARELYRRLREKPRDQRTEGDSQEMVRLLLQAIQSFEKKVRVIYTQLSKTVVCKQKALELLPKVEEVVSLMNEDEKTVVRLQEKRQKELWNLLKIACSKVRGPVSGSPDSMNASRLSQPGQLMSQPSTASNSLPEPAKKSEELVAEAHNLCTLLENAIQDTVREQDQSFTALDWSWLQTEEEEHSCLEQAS
# Experimental: as §1, §2
# JAK2(h) = JAK2(h) (Homo sapiens (Human), UniProt O60674); conditions: TK
# Experimental: as §1, §2
# JAK3(h) = JAK3(h) (Homo sapiens (Human), UniProt P52333); conditions: TK
# Experimental: as §1, §2
# KDR(h) = KDR(h) (Homo sapiens (Human), UniProt P35968); conditions: TK
# Experimental: as §1, §2
# Lck(h) = Lck(h) (Homo sapiens (Human), UniProt P06239); conditions: TK
# Experimental: as §1, §2
# Lyn(h) = Lyn(h) (Homo sapiens (Human), UniProt P07948); conditions: TK
# Experimental: as §1, §2
# MAPK1(h) = MAPK1(h) (Homo sapiens (Human), UniProt P27361); conditions: CMGC
# Sequence of MAPK1(h) (P27361 whole entry): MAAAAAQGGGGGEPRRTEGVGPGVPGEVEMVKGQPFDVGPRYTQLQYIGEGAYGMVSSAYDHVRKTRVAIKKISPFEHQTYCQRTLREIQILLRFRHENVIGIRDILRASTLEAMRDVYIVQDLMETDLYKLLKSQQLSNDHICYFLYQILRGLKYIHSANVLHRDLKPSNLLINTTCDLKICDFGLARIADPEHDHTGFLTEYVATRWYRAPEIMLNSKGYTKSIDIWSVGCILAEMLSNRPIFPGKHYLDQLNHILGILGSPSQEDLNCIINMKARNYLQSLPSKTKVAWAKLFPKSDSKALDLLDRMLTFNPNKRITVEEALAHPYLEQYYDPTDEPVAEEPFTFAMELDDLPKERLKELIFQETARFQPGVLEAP
# Experimental: as §1, §2
# MEK1(h) = MEK1(h) (Homo sapiens (Human), UniProt Q02750); conditions: STE
# Experimental: as §1, §2
# MKK6(h) = MKK6(h) (Homo sapiens (Human), UniProt P52564); conditions: STE
# Experimental: as §1, §2
# Met(h) = Met(h) (Homo sapiens (Human), UniProt P08581); conditions: TK
# Experimental: as §1, §2
# PDGFRβ(h) = PDGFRβ(h) (Homo sapiens (Human), UniProt P09619); conditions: TK
# Sequence of PDGFRβ(h) (P09619 33-1106): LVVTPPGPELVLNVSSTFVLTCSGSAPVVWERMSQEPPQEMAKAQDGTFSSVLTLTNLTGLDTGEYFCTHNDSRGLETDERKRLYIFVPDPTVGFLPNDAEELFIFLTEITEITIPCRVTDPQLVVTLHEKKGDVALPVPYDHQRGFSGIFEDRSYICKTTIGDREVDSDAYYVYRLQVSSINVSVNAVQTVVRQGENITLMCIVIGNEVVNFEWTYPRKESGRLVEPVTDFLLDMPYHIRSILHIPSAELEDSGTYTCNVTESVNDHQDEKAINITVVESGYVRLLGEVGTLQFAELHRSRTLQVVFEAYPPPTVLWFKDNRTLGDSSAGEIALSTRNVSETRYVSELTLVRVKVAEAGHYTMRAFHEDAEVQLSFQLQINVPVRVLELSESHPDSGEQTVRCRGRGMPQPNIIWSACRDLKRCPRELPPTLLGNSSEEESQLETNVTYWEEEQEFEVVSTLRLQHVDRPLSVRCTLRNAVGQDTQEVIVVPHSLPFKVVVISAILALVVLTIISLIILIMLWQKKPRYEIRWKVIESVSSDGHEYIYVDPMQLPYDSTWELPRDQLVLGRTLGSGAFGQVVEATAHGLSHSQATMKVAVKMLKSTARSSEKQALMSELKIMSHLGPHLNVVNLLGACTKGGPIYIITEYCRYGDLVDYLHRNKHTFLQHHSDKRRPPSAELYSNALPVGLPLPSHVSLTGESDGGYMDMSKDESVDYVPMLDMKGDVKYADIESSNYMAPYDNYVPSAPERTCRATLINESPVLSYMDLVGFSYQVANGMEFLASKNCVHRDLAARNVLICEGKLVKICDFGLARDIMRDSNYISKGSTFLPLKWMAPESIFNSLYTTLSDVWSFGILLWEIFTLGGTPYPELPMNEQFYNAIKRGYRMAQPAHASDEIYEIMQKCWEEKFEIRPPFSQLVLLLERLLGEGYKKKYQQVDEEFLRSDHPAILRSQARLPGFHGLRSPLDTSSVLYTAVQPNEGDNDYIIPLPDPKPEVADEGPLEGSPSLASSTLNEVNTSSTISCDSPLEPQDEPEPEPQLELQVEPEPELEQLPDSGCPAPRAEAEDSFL
# Experimental: as §1, §2
# PKCα(h) = PKCα(h) (Homo sapiens (Human), UniProt P17252); conditions: AGC
# Experimental: as §1, §2
# SAPK2b(h) = SAPK2b(h) (Homo sapiens (Human), UniProt Q15759); conditions: CMGC
# Experimental: as §1, §2
# Src(1-530)(h) = Src(1-530)(h) (Homo sapiens (Human), UniProt P12931); conditions: TK
# Experimental: as §1, §2
# Syk(h) = Syk(h) (Homo sapiens (Human), UniProt P43405); conditions: TK
# Experimental: as §1, §2
# TGFBR1(h) = TGFBR1(h) (Homo sapiens (Human), UniProt P36897); conditions: TKL
# Experimental: as §1, §2
# Tie2(h) = Tie2(h) (Homo sapiens (Human), UniProt Q02763); conditions: TK
# Sequence of Tie2(h) (Q02763 23-1124): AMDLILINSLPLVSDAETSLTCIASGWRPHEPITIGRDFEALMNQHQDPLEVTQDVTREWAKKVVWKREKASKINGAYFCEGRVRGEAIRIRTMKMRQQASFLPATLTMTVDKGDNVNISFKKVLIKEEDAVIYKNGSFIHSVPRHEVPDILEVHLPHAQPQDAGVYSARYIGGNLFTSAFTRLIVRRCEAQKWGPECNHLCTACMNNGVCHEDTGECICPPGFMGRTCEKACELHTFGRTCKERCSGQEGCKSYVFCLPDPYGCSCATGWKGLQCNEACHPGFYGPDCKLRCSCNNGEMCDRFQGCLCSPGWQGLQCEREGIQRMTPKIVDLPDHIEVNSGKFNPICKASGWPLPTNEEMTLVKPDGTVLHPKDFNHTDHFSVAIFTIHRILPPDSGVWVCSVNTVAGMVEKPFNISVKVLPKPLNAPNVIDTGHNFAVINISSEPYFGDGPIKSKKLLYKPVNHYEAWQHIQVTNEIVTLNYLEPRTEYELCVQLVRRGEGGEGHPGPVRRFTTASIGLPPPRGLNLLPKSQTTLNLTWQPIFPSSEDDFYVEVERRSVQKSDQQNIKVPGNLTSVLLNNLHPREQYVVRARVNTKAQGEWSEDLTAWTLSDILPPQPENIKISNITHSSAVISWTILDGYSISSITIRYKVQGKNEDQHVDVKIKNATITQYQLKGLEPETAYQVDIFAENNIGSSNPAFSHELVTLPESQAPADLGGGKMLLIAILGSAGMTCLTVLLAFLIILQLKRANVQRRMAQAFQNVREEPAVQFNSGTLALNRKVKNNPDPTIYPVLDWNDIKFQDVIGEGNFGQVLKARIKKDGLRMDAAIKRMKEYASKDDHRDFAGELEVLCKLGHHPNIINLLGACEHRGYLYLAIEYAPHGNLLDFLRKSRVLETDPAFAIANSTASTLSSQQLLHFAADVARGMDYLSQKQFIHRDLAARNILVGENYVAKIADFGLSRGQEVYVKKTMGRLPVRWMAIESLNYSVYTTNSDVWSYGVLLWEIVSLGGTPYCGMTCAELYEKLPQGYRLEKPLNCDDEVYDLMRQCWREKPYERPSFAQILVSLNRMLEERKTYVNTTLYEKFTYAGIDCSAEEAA
# Experimental: as §1, §2
# c-Kit(D816V)(h) = c-Kit(D816V)(h) (Homo sapiens (Human), UniProt P10721, D816V); conditions: TK
# Experimental: as §1, §2
# mTOR(h) = mTOR(h) (Homo sapiens (Human), UniProt P42345); conditions: Lipid/Atypical
# Experimental: as §1, §2
# CDK2/cyclinA(h) = CDK2/cyclinA(h) (Homo sapiens (Human), UniProt P24941); conditions: CMGC
SMILES,pIC50 (ASK1(h)),pIC50 (Abl(h)),pIC50 (BTK(R28H)(h)),pIC50 (Bmx(h)),pIC50 (CDK7/cyclinH/MAT1(h)),pIC50 (CHK1(h)),pIC50 (CK1δ(h)),pIC50 (CSK(h)),pIC50 (EGFR(h)),pIC50 (FGFR1(h)),pIC50 (GSK3α(h)),pIC50 (GSK3β(h)),pIC50 (Hck(h) activated),pIC50 (IGF-1R(h)),pIC50 (IKKβ(h)),pIC50 (JAK2(h)),pIC50 (JAK3(h)),pIC50 (KDR(h)),pIC50 (Lck(h)),pIC50 (Lyn(h)),other results
"CCN(CC)CCOc1ccc(Nc2cc3c(cn2)cc(-c2ccccc2)c(=O)n3CC)nc1 [Compound 1, 7-[5-(2-Diethylamino-ethoxy)-pyridin-2-ylamino]-1-ethyl-3-phenyl-1H-[1, 6]naphthyridin-2-one]",< 6.00,> 8.00,6.00 to 6.30,> 8.00,< 6.00,< 6.00,< 6.00,6.00 to 6.30,6.00 to 6.30,> 8.00,< 6.00,< 6.00,> 8.00,< 6.00,< 6.00,< 6.00,< 6.00,6.30 to 7.00,> 8.00,> 8.00,pIC50 (MAPK1(h)): < 6.00; pIC50 (MEK1(h)): < 6.00; pIC50 (MKK6(h)): < 6.00; pIC50 (Met(h)): < 6.00; pIC50 (PDGFRβ(h)): 6.30 to 7.00; pIC50 (PKCα(h)): < 6.00; pIC50 (SAPK2b(h)): < 6.00; pIC50 (Src(1-530)(h)): > 8.00; pIC50 (Syk(h)): < 6.00; pIC50 (TGFBR1(h)): 6.30 to 7.00; pIC50 (Tie2(h)): 6.00 to 6.30; pIC50 (c-Kit(D816V)(h)): 6.30 to 7.00; pIC50 (mTOR(h)): < 6.00; pIC50 (CDK2/cyclinA(h)): < 6.00
"CCn1c(=O)c(-c2ccccc2)cc2cnc(Nc3ncc(CCN(C)C)s3)cc21 [Compound 2, 7-[5-(2-Dimethylamino-ethyl)-thiazol-2-ylamino]-1-ethyl-3-phenyl-1H-[1,6]naphthyridin-2-one]",< 6.00,7.00 to 8.00,< 6.00,7.00 to 8.00,< 6.00,< 6.00,< 6.00,< 6.00,< 6.00,7.00 to 8.00,< 6.00,< 6.00,6.30 to 7.00,< 6.00,< 6.00,< 6.00,< 6.00,6.00 to 6.30,> 8.00,> 8.00,pIC50 (MAPK1(h)): < 6.00; pIC50 (MEK1(h)): < 6.00; pIC50 (MKK6(h)): < 6.00; pIC50 (Met(h)): < 6.00; pIC50 (PDGFRβ(h)): 6.00 to 6.30; pIC50 (PKCα(h)): < 6.00; pIC50 (SAPK2b(h)): < 6.00; pIC50 (Src(1-530)(h)): 7.00 to 8.00; pIC50 (Syk(h)): < 6.00; pIC50 (TGFBR1(h)): 6.00 to 6.30; pIC50 (Tie2(h)): < 6.00; pIC50 (c-Kit(D816V)(h)): < 6.00; pIC50 (mTOR(h)): < 6.00; pIC50 (CDK2/cyclinA(h)): < 6.00
